Assay results as given in patent EP0011277A1, “Dechloromaytansinoids, their production and use and pharmaceutical compositions containing them” (priority 1978, dated 1980).
≈ marks a conversion by molar mass, not a printed value. Like-named read-outs stand apart in the source and are kept apart here.

How the values were obtained:
[1] = tested on: Tetrahymena pyriformis W; experiment: Antiprotozoal activity, growth inhibition by serial dilution method; assay type: cell-based; details: read-out: Antiprotozoal activity MIC (μg/ml) Tetrahymena pyriformis W
Experimental: Antiprotozoal activity of compound (I) was assayed with Tetrahymena pyriformis W as the test organism and a medium composed of 20 g tryptose-peptone (Difoo Cc.), 1 g; yeast extract, 2 g glucose, 1000 mℓ distilled water, 10 mℓ IM phosphate buffer (pH 7.0) as the assay medium. The microorganism was incubated at 28°C for 44 to 48 hours and the growth inhibitory activity of compound (I) was assayed by the serial dilution method.

[2] = tested on: leukemia P-388; experiment: Antitumor therapeutic test in mice, leukemia P-388 (NCI protocol), life span prolongation; assay type: in vivo; details: intraperitoneally once daily for 9 consecutive days
Experimental: (§1) Therapeutic tests were carried out in mice according to NCI-protocols 1,200 and 1,300, Cancer Chemother, Reports, Part 3, 1972, Vol.3, No.2, in which leukemia P-388 and melanoma B-16 tumor cells had been intraperitoneally transplanted, compound (I) being administered intraperitoneally once daily for 9 consecutive days.

[3] = tested on: melanoma B-16; experiment: Antitumor therapeutic test in mice, melanoma B-16 (NCI protocol), life span prolongation; assay type: in vivo; details: intraperitoneally once daily for 9 consecutive days
Experimental: as §1

| Compound | MIC [1] [µg/mL] | Antitumor activities P-388 (T/C %) ([2]; Dose 50 µg/kg) | Antitumor activities P-388 (T/C %) ([2]; Dose 100 µg/kg) | Antitumor activities P-388 (T/C %) ([2]; Dose 200 µg/kg) | Antitumor activities P-388 (T/C %) ([2]; Dose 400 µg/kg) | Antitumor activities B-16 (T/C %) ([3]; Dose 100 µg/kg) | Antitumor activities B-16 (T/C %) ([3]; Dose 200 µg/kg) | Antitumor activities B-16 (T/C %) ([3]; Dose 400 µg/kg) | Antitumor activities B-16 (T/C %) ([3]; Dose 800 µg/kg) | MIC ([1]; incubated at 28°C for 44 to 48 hours, serial dilution method) [µg/mL] |
| --- | --- | --- | --- | --- | --- | --- | --- | --- | --- | --- |
| COc1cc2cc(c1)N(C)C(=O)CC(OC(=O)CCl)C1(C)OC1C(C)C1CC(O)(NC(=O)O1)C(OC)/C=C/C=C(\C)C2 (stereo not shown) [Dechloromaytansinol 3-chloroacetate, dechloromaytansinol 3-chloroacetate] | ≥ 4 |  |  |  |  |  |  |  |  |  |
| dechloromaytansine |  | 158 | 165 | 175 | 189 | 171 | 152 | 179 | 190 |  |
| COc1cc2cc(c1)N(C)C(=O)CC(OC(=O)Cc1ccccc1)C1(C)OC1C(C)C1CC(O)(NC(=O)O1)C(OC)/C=C/C=C(\C)C2 (stereo not shown) [Dechloromaytansinol 3-phenylacetate, dechloromaytansinol 3-phenylacetate] |  |  |  |  |  |  |  |  |  | 2 (≈ 3.08 µM) |
| COc1cc2cc(c1)N(C)C(=O)CC(OC(=O)C(C)C)C1(C)OC1C(C)C1CC(O)(NC(=O)O1)C(OC)/C=C/C=C(\C)C2 (stereo not shown) [Dechloromaytansinol 3-isobutyrate, dechloromaytansinol 3-isobutyrate] |  | 168 | 189 | 193 | 224 | 150 | 152 | 174 | 214 |  |
| COc1cc2cc(c1)N(C)C(=O)CC(OC(=O)C1CCCCC1)C1(C)OC1C(C)C1CC(O)(NC(=O)O1)C(OC)/C=C/C=C(\C)C2 (stereo not shown) [dechloromaytansinol 3-cyclohexanecarboxylate] | 4 (≈ 6.24 µM) |  |  |  |  |  |  |  |  |  |
